Laboratory results published in ChEMBL document CHEMBL3044838, “Phytotoxic activity of quinones and resorcinolic lipid derivatives” (J Agric Food Chem, 2010).
Calls of active or inactive are those of the source. The calls are words filed in the database; no cut-off is given here.

Columns and labels:
Assay type in all cases: functional, organism-based
Agrostis stolonifera [1] = experiment: Phytotoxic activity against Agrostis stolonifera var. Penncross seedlings assessed as growth inhibition at 0.3 mM
Agrostis stolonifera [2] = experiment: Phytotoxic activity against Agrostis stolonifera var. Penncross seedlings assessed as growth inhibition at 1 mM
Lactuca sativa [3] = experiment: Phytotoxic activity against Lactuca sativa cv. Iceberg A (lettuce) seedlings assessed as growth inhibition at 0.1 mM
Lactuca sativa [4] = experiment: Phytotoxic activity against Lactuca sativa cv. Iceberg A (lettuce) seedlings assessed as growth inhibition at 0.01 mM
Agrostis stolonifera [5] = experiment: Phytotoxic activity against Agrostis stolonifera var. Penncross seedlings assessed as growth inhibition at 0.03 mM
Agrostis stolonifera [6] = experiment: Phytotoxic activity against Agrostis stolonifera var. Penncross seedlings assessed as growth inhibition at 0.01 mM
Lactuca sativa [7] = experiment: Phytotoxic activity against Lactuca sativa cv. Iceberg A (lettuce) seedlings assessed as growth inhibition at 0.03 mM
Agrostis stolonifera [8] = experiment: Phytotoxic activity against Agrostis stolonifera var. Penncross seedlings assessed as growth inhibition at 0.1 mM
Lactuca sativa [9] = experiment: Phytotoxic activity against Lactuca sativa cv. Iceberg A (lettuce) seedlings assessed as growth inhibition at 0.3 mM
Lactuca sativa [10] = experiment: Phytotoxic activity against Lactuca sativa cv. Iceberg A (lettuce) seedlings assessed as growth inhibition at 1 mM

With `CCCCCCCCCCCCCCC1=C(O)C(=O)C=C(OC)C1=O` the “growth inhibition (GI)” value (Agrostis stolonifera [1]) was “inactive”, the “growth inhibition (GI)” value (Agrostis stolonifera [2]) was “inactive” and the “growth inhibition (GI)” value (Lactuca sativa [3]) was “inactive”. For the same molecule, the “growth inhibition (GI)” value (Lactuca sativa [4]) was “inactive”, the “growth inhibition (GI)” value (Agrostis stolonifera [5]) was “inactive” and the “growth inhibition (GI)” value (Agrostis stolonifera [6]) was “inactive”. The “growth inhibition (GI)” value (Lactuca sativa [7]) was “inactive” and the “growth inhibition (GI)” value (Agrostis stolonifera [8]) was “inactive”.
In the case of `CCCCCC1=C(OC)C(=O)C=C(OC)C1=O`, the “growth inhibition (GI)” value (Lactuca sativa [3]) is reported as “inactive”, the “growth inhibition (GI)” value (Lactuca sativa [4]) is reported as “inactive” and the “growth inhibition (GI)” value (Agrostis stolonifera [5]) is reported as “inactive”. The “growth inhibition (GI)” value (Agrostis stolonifera [6]) was “inactive” and the “growth inhibition (GI)” value (Lactuca sativa [7]) was “inactive”.
For `CCCCCCCCCCC1=C(OC)C(=O)C=C(OC)C1=O`, the “growth inhibition (GI)” value (Agrostis stolonifera [1]) was “inactive”, the “growth inhibition (GI)” value (Lactuca sativa [3]) was “inactive” and the “growth inhibition (GI)” value (Lactuca sativa [4]) was “inactive”. The “growth inhibition (GI)” value (Agrostis stolonifera [5]) was “inactive”, the “growth inhibition (GI)” value (Agrostis stolonifera [6]) was “inactive” and the “growth inhibition (GI)” value (Lactuca sativa [7]) was “inactive”. The “growth inhibition (GI)” value (Lactuca sativa [9]) was “inactive” and the “growth inhibition (GI)” value (Agrostis stolonifera [8]) was “inactive”.
For `C=CC/C=C\C/C=C\CCCCCCCC1=C(O)C(=O)C=C(OC)C1=O`, the “growth inhibition (GI)” value (Agrostis stolonifera [1]) was “inactive”, the “growth inhibition (GI)” value (Agrostis stolonifera [2]) was “inactive” and the “growth inhibition (GI)” value (Lactuca sativa [4]) was “inactive”. For the same molecule, the “growth inhibition (GI)” value (Agrostis stolonifera [5]) was “inactive”, the “growth inhibition (GI)” value (Agrostis stolonifera [6]) was “inactive” and the “growth inhibition (GI)” value (Lactuca sativa [7]) was “inactive”. The “growth inhibition (GI)” value (Agrostis stolonifera [8]) was “inactive”.
For `CCCCCC1=C(O)C(=O)C=C(OC)C1=O`, the “growth inhibition (GI)” value (Lactuca sativa [10]) was “Active”, the “growth inhibition (GI)” value (Lactuca sativa [3]) was “inactive” and the “growth inhibition (GI)” value (Lactuca sativa [4]) was “inactive”. The “growth inhibition (GI)” value (Agrostis stolonifera [5]) was “inactive”, the “growth inhibition (GI)” value (Agrostis stolonifera [6]) was “inactive” and the “growth inhibition (GI)” value (Lactuca sativa [7]) was “inactive”.
